# Reference: patent US10150984B2, “Tyrosine kinase biosensors and methods of use” (Purdue Research Foundation, priority 2012, dated 2018)
# Like-named read-outs stand apart in the source and are kept apart here. *1 amine or outer side, *2 acyl side, *3 side chain or, on linkers, in order; H or OH if unused. Where no end group is shown, it is not given here. [ ]: non-standard residue; d: D form. The star is where a group is joined. ξ: configuration not given here. ξβ3hPhg(2-NO2) = O=C(CC(N[*:1])c1ccccc1[N+](=O)[O-])[*:2]; Biotin = O=C1N[C@H]2[C@H](CS[C@H]2CCCCC(=O)*)N1
# Columns and labels:
# [1] = Tb3+ binding affinity and stoichiometry by sensitized luminescence
# Syk-EGFP = Syk-EGFP (Mus musculus, UniProt P48025); experiment: Terbium time-resolved luminescence dose-response inhibition assay with SAStide; format: biochemical; settings: SAStide 37.5 μM, 30 min, Tb3+ luminescence, read-out: observed IC50
# Syk-EGFP, sequence (P48025 whole entry): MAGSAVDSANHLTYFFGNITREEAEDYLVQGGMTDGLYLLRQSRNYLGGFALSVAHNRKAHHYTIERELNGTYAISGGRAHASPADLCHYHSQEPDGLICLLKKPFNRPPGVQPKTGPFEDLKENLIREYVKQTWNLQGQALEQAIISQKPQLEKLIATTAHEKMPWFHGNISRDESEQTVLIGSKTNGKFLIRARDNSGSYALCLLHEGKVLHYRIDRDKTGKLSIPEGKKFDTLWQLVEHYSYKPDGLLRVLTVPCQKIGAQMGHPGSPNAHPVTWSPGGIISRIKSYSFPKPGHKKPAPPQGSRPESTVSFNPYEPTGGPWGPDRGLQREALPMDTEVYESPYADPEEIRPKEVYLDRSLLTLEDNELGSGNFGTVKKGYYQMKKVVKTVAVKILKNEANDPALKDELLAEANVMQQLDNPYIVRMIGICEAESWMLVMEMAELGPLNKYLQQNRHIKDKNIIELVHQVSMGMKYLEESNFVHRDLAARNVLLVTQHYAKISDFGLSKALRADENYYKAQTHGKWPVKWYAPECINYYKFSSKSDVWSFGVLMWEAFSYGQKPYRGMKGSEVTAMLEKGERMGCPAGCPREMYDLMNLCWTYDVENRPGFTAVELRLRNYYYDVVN
# [2] = tested on: peripheral T-cell lymphomas (PTCLs); settings: PTCL cells; cited from earlier work
# Abl [3] = target: T1, Abl (Homo sapiens, UniProt P00519); experiment: ABStide specificity in vitro kinase assay (terbium luminescence, confirmed by ELISA); format: biochemical; settings: terbium-sensitized luminescence
# T1 sequence (P00519 whole entry, species assumed): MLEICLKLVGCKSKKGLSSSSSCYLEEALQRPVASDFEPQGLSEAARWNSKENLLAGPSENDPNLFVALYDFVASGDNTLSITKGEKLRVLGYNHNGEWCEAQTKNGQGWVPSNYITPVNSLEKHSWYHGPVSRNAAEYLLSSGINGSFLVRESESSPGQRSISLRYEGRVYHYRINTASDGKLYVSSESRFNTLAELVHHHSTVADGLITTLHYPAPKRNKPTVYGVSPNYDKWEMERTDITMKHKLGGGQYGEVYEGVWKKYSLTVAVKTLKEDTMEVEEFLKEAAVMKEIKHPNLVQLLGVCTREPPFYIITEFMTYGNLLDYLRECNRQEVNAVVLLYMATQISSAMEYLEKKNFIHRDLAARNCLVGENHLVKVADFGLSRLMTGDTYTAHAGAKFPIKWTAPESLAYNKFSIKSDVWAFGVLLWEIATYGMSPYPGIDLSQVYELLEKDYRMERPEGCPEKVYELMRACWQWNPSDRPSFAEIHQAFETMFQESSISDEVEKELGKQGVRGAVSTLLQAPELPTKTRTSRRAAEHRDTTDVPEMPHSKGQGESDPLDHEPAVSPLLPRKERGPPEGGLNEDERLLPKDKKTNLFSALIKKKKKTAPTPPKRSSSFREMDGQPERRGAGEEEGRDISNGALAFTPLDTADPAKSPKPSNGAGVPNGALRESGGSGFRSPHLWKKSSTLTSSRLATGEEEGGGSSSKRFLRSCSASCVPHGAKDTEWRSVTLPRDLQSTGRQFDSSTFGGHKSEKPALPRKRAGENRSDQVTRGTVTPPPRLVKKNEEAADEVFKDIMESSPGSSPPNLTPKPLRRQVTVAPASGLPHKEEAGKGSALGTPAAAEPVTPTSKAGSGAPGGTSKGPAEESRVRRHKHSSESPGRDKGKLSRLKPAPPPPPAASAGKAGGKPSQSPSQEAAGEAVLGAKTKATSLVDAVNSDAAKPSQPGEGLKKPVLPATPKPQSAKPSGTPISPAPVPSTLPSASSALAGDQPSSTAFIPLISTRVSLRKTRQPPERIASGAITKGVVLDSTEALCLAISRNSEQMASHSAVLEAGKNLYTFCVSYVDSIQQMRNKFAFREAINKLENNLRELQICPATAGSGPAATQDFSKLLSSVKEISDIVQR
# Protocol: Terbium based in vitro kinase assays. Recombinant kinases were incubated with the kinase reaction buffer (15 nM kinase, 100 μM ATP, 10 mM MgCl2, 125 ng/μL BSA and 25 mM HEPES pH 7.5, total volume 180 μL) containing 12.5 μM biosensor at 30° C. Aliquots (20 μL) were taken at designated time points (0.5, 5, 10, 15, 30, 45 and 60 min) and quenched in 6 M urea (20 μL). The quenched samples were then treated with the luminescence buffer (500 μM Tb^3+ and 500 mM NaCl, 10 μL) for a total volume of 50 μL (final concentrations of sample components: 2.4 M urea, 40 μM ATP, 4 mM MgCl2, 50 ng/μL BSA and 10 mM HEPES pH 7.5). Luminescence emission spectra were collected as described above and the area under each spectrum was integrated using GraphPad Prism. An additional aliquot (2 μL) of the kinase reaction mixture was taken at each time point for validation of phosphorylation using an ELISA-based chemifluorescent assay as previously described. Briefly, each aliquot was quenched with 0.5 M EDTA and incubated in a 96-well Neutravidin coated plate (15 pmol biotin binding capacity per well, Thermo Scientific) in Tris-buffer saline (TBS) containing 0.1% BSA and 0.05% Tween 20 for 1 h. […] Fluorescence was measured using a Synergy4 multiwell plate reader (Biotek) with an excitation wavelength of 532 nm and emission wavelength of 590 nm.
# Bcr-Abl [4] = target: T2, Bcr-Abl (Homo sapiens, UniProt P00519); experiment: Cell-based Bcr-Abl biosensor assay in K562 cells, Western blot
# T2 sequence (P00519 with tags, fused parts or gaps): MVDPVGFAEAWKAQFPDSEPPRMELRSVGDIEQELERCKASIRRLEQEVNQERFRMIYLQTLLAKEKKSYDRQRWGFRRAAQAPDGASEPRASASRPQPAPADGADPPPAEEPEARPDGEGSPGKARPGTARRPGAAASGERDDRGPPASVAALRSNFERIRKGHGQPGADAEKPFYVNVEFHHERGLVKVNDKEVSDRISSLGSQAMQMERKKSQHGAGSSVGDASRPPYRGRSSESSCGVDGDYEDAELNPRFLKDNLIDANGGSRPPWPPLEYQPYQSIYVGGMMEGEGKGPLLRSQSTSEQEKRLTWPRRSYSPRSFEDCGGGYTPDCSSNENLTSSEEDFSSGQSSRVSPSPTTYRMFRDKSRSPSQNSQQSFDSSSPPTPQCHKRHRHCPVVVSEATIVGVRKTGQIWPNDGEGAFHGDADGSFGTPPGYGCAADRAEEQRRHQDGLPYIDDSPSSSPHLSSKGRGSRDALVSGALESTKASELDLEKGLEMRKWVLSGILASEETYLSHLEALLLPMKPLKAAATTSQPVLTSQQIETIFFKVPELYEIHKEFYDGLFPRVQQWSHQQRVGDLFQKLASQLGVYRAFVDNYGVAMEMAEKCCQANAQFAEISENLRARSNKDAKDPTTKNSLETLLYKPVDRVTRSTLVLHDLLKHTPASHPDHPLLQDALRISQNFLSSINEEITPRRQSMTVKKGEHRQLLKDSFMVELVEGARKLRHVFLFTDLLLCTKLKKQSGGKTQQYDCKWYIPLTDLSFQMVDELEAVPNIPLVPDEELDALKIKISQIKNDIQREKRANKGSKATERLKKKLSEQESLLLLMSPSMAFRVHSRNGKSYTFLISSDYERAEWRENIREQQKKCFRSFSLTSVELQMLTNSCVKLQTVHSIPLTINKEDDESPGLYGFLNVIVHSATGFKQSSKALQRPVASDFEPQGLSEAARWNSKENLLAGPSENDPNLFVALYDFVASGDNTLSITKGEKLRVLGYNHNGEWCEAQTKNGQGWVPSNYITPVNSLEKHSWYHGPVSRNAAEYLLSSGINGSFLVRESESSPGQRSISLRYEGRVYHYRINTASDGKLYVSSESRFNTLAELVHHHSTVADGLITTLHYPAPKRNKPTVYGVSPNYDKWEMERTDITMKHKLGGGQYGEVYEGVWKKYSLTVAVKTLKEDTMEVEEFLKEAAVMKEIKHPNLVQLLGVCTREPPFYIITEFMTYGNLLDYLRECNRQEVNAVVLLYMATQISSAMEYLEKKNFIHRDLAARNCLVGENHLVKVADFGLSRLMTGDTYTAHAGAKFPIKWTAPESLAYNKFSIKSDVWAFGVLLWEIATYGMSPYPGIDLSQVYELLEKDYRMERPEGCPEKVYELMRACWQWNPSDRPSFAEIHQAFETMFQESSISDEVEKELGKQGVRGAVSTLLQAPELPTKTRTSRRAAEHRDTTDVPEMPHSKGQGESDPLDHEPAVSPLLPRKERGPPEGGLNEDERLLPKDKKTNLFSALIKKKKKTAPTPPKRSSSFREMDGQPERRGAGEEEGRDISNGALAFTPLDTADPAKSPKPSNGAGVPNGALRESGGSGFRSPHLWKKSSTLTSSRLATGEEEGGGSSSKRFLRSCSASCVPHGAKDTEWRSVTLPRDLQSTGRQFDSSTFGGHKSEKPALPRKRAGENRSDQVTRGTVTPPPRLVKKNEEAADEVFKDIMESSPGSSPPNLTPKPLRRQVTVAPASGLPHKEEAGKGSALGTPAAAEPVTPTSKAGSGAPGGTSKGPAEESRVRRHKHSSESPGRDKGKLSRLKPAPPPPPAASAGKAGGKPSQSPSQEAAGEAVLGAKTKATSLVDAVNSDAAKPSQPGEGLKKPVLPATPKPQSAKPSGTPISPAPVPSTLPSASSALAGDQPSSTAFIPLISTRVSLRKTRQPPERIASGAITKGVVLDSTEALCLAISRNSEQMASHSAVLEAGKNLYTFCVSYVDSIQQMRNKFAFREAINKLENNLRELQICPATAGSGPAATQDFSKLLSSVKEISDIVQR
# K562 cells = experiment: Intracellular degradation of biosensor peptide in K562 cells, MALDI-TOF/TOF; settings: 5 min exposure
# Abl [5] = target: T1, Abl; experiment: In vitro kinase assay, ELISA-based detection of peptide phosphorylation; format: biochemical; settings: ELISA read-out
# Protocol: (§1) In vitro kinase assay. Recombinant Abl, Src and Lyn enzymes were obtained from a commercial source (Millipore). EGFP-conjugated Syk was isolated from DT40 chicken B cells stably expressing Syk-EGFP. GFP-conjugated Lck was isolated from Jurkat cells stably expressing Lck-EGFP. Cells were lysed using a solution containing 1% Nonidet P-40, 50 mM Tris-HCl pH 8.0, 100 mM NaCl, 5 mM EDTA, 1 mM sodium orthovanadate, 2 mM NaF and 1× mammalian protease inhibitor cocktail (Sigma). Syk- and Lck-EGFP were immunoprecipitated using GFP-Trap_A beads (Chromotek) or anti-GFP magnetic nanoparticle beads (MBL, Japan). Lysates were incubated with the beads for 1 h at 4° C. The kinase-bound beads were washed and then used in the in vitro kinase assay. Syk-EGFP, Lck-EGFP, or purified Abl or Src kinase (0.1 U) were incubated with kinase reaction buffer (500 μM ATP, 5 mM MnCl2, HEPES, pH 7.2) containing the peptide substrate at 25 μM. Aliquots (22 μL) were taken at designated time points and quenched in 0.5 M EDTA, pH 8.5 (22 μL). The quenched sample (1 μL) was diluted into ELISA-based detection wash buffer and analyzed as described below. For substrate comparison assays, kinase reaction conditions were as described above except that substrate concentrations were 4 μM, and concentration of enzyme used per reaction was 6 nM. The volume of aliquots diluted in an equal volume of quench buffer was 4 μl (for 8 μl total quenched volume), and the entire quenched amount was diluted into ELISA wash buffer and analyzed as described below.
# (§2) ELISA-based fluorescence detection. Samples were incubated in a 96-well Neutravidin™ coated plate (Thermo Scientific) in Tris-buffered saline (TBS) containing 0.1% BSA and 0.05% Tween 20 for 1 h at room temperature on a short-radius plate shaker (600 rpm). Following incubation, wells were washed three times with wash buffer (TBS, 0.1% BSA, 0.05% Tween 20), then incubated with mouse anti-phosphotyrosine monoclonal antibody 4G10 (1:5000 dilution in wash buffer, 100 μL per well) for 1 h at room temperature with shaking. Wells were washed three times with wash buffer and incubated with horseradish peroxidase-conjugated goat anti-mouse immunoglobulin G (IgG) secondary antibody (Abcam) (1:1000 dilution in the wash buffer, 100 μL per well) for 1 h at room temperature with shaking. Wells were then washed three times with wash buffer and twice with sodium phosphate buffer (0.05 M, pH 7.5). For chemifluorescence detection, Amplex Red™ reaction buffer (100 μL total volume/well) consisting of Amplex Red™ reagent (50 μL) (Invitrogen), 20 mM H2O2 (500 μL) and sodium phosphate buffer (4500 μL) and allowed to react for 30 min. Fluorescence of Amplex Red™ was measure using a Synergy4 multiwell plate reader (Biotek) with an excitation wavelength of 532 nm and emission wavelength of 590 nm.
# Lyn = Lyn (Homo sapiens, UniProt P07948); experiment: as above; format: biochemical; settings: ELISA read-out
# Lyn, sequence (P07948 whole entry, species assumed): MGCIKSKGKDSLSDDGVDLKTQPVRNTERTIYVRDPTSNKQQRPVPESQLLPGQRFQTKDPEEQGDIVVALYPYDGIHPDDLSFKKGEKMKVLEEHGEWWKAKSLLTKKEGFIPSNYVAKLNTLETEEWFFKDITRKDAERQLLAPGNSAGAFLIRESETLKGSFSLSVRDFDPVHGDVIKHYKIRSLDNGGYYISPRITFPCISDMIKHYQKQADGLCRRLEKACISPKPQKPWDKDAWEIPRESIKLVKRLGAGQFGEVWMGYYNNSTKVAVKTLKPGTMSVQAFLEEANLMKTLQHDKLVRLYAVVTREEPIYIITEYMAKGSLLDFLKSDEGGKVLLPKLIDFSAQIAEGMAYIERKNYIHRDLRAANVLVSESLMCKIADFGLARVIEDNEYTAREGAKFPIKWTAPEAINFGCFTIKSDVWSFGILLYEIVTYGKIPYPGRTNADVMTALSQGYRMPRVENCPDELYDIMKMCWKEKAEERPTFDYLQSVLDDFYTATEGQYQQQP
# Protocol: as §1, §2
# Src = Src (Homo sapiens, UniProt P12931); experiment: as above; format: biochemical; settings: ELISA read-out
# Protocol: as §1, §2
# Syk = target: T3, Syk (Mus musculus, UniProt P48025); experiment: as above; format: biochemical; settings: ELISA read-out
# T3 construct: made in house; host or cells: DT40 chicken B cells (Syk-deficient, reconstituted with Syk-EGFP)
# T3 sequence (P48025 whole entry): as the sequence (P48025 whole entry) above
# Protocol: as §1, §2
# Bcr-Abl [6] = target: T2, Bcr-Abl; experiment: Cell-based Bcr-Abl biosensor assay in K562 cells, MRM mass spectrometry; set-up: endogenous in cells; host or cells: K562 cells; the other entry of the earlier key: BCR (P11274, Breakpoint cluster region protein); settings: 5 min, 1 μg lysate
# [7] = tested on: DG75 and DT40 B cell lines; experiment: Toxicity of SAStide biosensor peptide in the cell-based assay; settings: peptide at 25 μM
# Protocol: Cell culture and biological reagents. The DG75 and DT40 B cell lines were grown to a density of 0.4×10^6 cells/mL in RPMI-1640 medium containing 7.5% FBS, 1 mM sodium pyruvate, 100 IU/mL penicillin, 100 μg/mL streptomycin and 50 μM 2-metcaptoethanol. Additionally, DT40 cell medium contained 1% chicken serum. Anti-chicken IgM and anti-mouse IgM F(ab′)2 fragments were purchased from Bethyl Laboratories. Anti-human IgM was purchased from Rockland Immunochemicals. Hydrogen peroxide was purchased from Mallinckrodt. Anti-Syk (N-19) was purchased from Santa Cruz Biotechnology. Anti-tubulin and anti-phosphotyrosine (4G10) were purchased from Millipore. Anti-phospho Syk (Y525/526) was purchased from Cell SignalingTechnology.
# Cell-Based peptide SAStide biosensor assay. […] Aliquots of the cell suspension (1 mL) were harvested, lysed in PhosphoSafe Extraction Reagent (EMD Millipore) containing 167 mM EDTA and freshly prepared protease inhibitor cocktail (Roche) and flash frozen. Half the cell lysate from each sample was used for ELISA-based fluorescence detection and the other for immunoblotting. For dose-response experiments, cells were stimulated with varying concentrations of anti-IgM (2.5-10 μg/mL) or hydrogen peroxide (1-7 mM), harvested at 5 min post-stimulation and processed as described above. For immunoblotting, membranes were blocked in 5% goat serum for 1 h. […]
# [8] = 1 μM peptide, Tb3+ 0-50 μM, read-out: Kd of peptide:terbium complex
compound,measurement,setting,value
pSFAStideA [Phosphorylated form of SFAStide-A],Kd,[1]; [8],0.77 µM
Oc1cc(O)cc(/C=C/c2ccc(O)c(O)c2)c1 [piceatannol],IC50,Syk-EGFP,178 ± 1.4 µM
COc1cc(Nc2ncc(F)c(Nc3ccc4c(n3)NC(=O)C(C)(C)O4)n2)cc(OC)c1OC [R406],effect on cells with elevated Syk Y525/Y526 phosphorylation,[2],induces apoptosis and blocks proliferation
"GGDEDDNDEVAYQAPFEDGGKbiotinGG (GGDEDDNDEVAYQAPFEDGGK(Biotin)GG) [ABStide, Abl artificial substrate peptide]",substrate specificity Abl against Hck,Abl [3],specific for Abl
"GGDNEGDVYDFVEDGGKbiotin (GGDNEGDVYDFVEDGGK(Biotin)GG) [SFAStideB, Src family artificial substrate peptide B]",Kd,[1]; [8],2.5 µM
EAIYAAPFAKKK(Biotin)G[ξβ3hPhg(2-NO2)]GCGGAPTYSPPPPPGGRKKRRQRRRLL [Abl biosensor],uptake into K562 cells,Bcr-Abl [4]; 25 μM peptide,readily taken up
same,intact peptide after exposure to cells,K562 cells,essentially no intact peptide was observed
GGEEDEDIYEELDEPGGKbiotinGG [SFAStide-A],Kd,[1]; [8],3.93 µM
same,phosphorylation of peptide by Abl,Abl [5],will not
same,phosphorylation of peptide by Lyn,Lyn,phosphorylate SFAStide-A efficiently
same,phosphorylation of peptide by Src,Src,phosphorylate SFAStide-A efficiently
same,phosphorylation of peptide by Syk,Syk,will not
pervanadate [reference compound],effect on phosphorylation of Abl biosensor,"Bcr-Abl [4]; K562 cells, 10 μM imatinib or 1 μM pervanadate, 5, 30, 60 min",stabilized
same,phosphorylated biosensor peptide detected,Bcr-Abl [6],higher levels
DEEDYEEPDEP [SAStide],toxicity of peptide to cells,[7],no toxicity was observed
same,Kd,[1]; read-out: Kd of 1:1 peptide-terbium complex,7.64 ± 0.32 µM
same,phosphorylation of peptide by Abl,Abl [5],none of which produced any significant signal
same,phosphorylation of peptide by Lyn,Lyn,none of which produced any significant signal
same,phosphorylation of peptide by Src,Src,none of which produced any significant signal
same,phosphorylation of peptide by Syk,Syk,phosphorylated
